What all share (type): cell-based
Experiment [1] relates to MM.1S cells. As to the kind of experiment: Effect of the compound on the proliferation of MM.1S cells (MTS). Conditions: Homo sapiens, MM1.S, 168 h, 7 days, read-out: Cell inhibitory activity (IC50). In a few lines: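 In 1640 medium + 10% FBS, 20,000 cells per well were treated with 5-fold compound dilutions at 0.2% DMSO for 7 days at 37° C., 5% CO2. MTS was read after 3–4 h as OD490−OD690, inhibition was calculated against DMSO and blank wells, and IC50 was fitted; three independent experiments were run.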

The test system of experiment [2] is Mino cells. Kind of experiment: Effect of the compound on the proliferation of Mino cells (MTS). Conditions: Homo sapiens, 72 h, 3 days, read-out: Inhibitory activity (IC50). In a few lines: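 Mino cells, 8000/well, treated 3 days at 37 °C/5% CO2 with 5-fold compound dilutions from 10 mM stock (0.2% DMSO final). MTS added for 3-4 h; OD490 minus OD690 read, inhibition relative to DMSO and blank, IC50 fitted. Three repeats, each in triplicate.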

Experiment [3] deals with prostate cancer cells DU145. As to the kind of experiment: Proliferation of other tumor cells, DU145 (WST-8). Conditions: Homo sapiens, DU-145, 96 h, 4 days, read-out: Inhibitory activity on proliferation, DU145 (IC50). The protocol: (§1) The human triple negative breast cancer cells MDA-MB-468 and MDA-MB-231 used in this experiment were purchased from the Shanghai Cell Bank, in which L-15 medium added with 10% fetal bovine serum (FBS) and 1% double antibody was used. At 37° C., MDA-MB-468 and MDA-MB-231 cells were cultured in an incubator without CO2. Colorectal cancer cells HCT-116 were cultured in McCOY's 5A medium with 1% double antibody and 10% fetal bovine serum (FBS); prostate cancer cells DU145 were cultured in MEM medium with 1% double antibody and 10% fetal bovine serum (FBS); prostate cancer cells PC-3 were cultured in F-12 K medium with 1% double antibody and 10% fetal bovine serum (FBS); grew at 37° C., 5% CO2.
(§2) In the cell activity test experiment, 90 μL cell suspension with appropriate concentration was added to a 96-well cell culture plate according to the cell growth, each compound to be tested was gradient diluted with the corresponding medium, 10 μL diluted compound was added to 90 μL cells, and then incubated at 37° C. for 4 days. Cell proliferation was analyzed by WST-8, which could be reduced by lactate dehydrogenase in the cells to a yellow formazan. 10 μL of WST-8 reagent (DOJINDO) was added to the cells and reacted for more than 1 hour at 37° C., DMSO-treated cells were used as […]. The absorption value of 490 nm was read by enzyme-labeled plate, and the absorption value of 690 nm was taken as the background value, and OD490-OD690 was taken as the final original data, and the data was processed by GraphPad Prism6 software. The formula for calculating the inhibition rate of the compound was: inhibition rate=(ODDMSO−ODcompound)/(ODDMSO−Oblank)×100%. The compound's proliferation inhibition IC50 was fitted by Graph Pad Prism 5.0. The experiment was repeated three times, and three parallel experiments were used to calculate the average and standard deviation each time. The cell viability test results were shown in Table 4: A means cell viability IC50<1 μM, B means cell viability 1 μM≤IC50≤20 μM, C means cell viability IC50>20 μM, NT means not tested.

In experiment [4] the test system is triple negative breast cancer cells MDA-MB-231. As to the kind of experiment: Proliferation of other tumor cells, MDA-MB-231 (WST-8). To be noted: Homo sapiens, 96 h, MDA-MB-231 cells, 4 days, read-out: Inhibitory activity on proliferation, MDA-MB-231 (IC50). The protocol: as §1, §2
Experiment [5] deals with Colorectal cancer cells HCT-116. Kind of experiment: Proliferation of other tumor cells, HCT-116 (WST-8). To be noted: Homo sapiens, 96 h, HCT-116 cells, 4 days, read-out: Inhibitory activity on proliferation, HCT-116 (IC50). The protocol:
as §1, §2

Experiment [6] deals with IFNγ. Kind of experiment: IFNγ expression change in anti-human CD3 stimulated PBMC (ELISA). To be noted: compound 10 nM, anti-human CD3 10 ug/ml, 24 hours. The protocol: All operations of this experiment were carried out according to the conventional experimental process of this kind of experiment at present. Peripheral blood from healthy volunteers was collected by routine standard procedure and cultured in 1640 medium (+10% FBS) to obtain PBMC. After recovery, PBMC was centrifuged and resuspended in serum-free medium. After counting, adjusted the density to be 6.25×10^5/ml; then inoculated 160 ul to a 96-well plate, 2 holes each, 1×10^5/well; 20 ul 10× compound and DMSO were added, and incubated for 1 hour in an incubator; then 20 ul 10× anti-human CD3 was added resulting the final concentration of 10 ug/ml and incubated in an incubator for 24 hours. Centrifuged the cell plate at 1500 rpm and aspirated 50 ul supernatant according to the ELISA operation. After operating according to the kit, a microplate reader was used to read at 450 nm. The concentration of compound was 10 nM, and DMSO was added as control group. Materials used in this experiment: 96 well plate (Corning, #3599), ELISA kit (Thermo), LPS (Sigma, USA). It was found from the test results of the following table that the compounds of the examples of the present invention could be used to regulate the expression of IFNγ.

The structures appear in SMILES notation.

Consider `Nc1cccc2c1CN(C1CCC(=O)NC1=O)C2=O` (stereo not drawn) [Lenalidomide, lenalidomide, reference compound], for which the IC50 in experiment [1] was below 0.15 µM; in experiment [2], above 20 µM; in experiment [3], above 20 µM; in experiment [4] it was above 20 µM; in experiment [5] it was above 20 µM. For the same compound, the “Increase multiple of IFNγ expression” value in experiment [6] is listed as above 1.5.
